Several values for one entry are separate records, joined by “and”; a condition that tells them apart may be missing. Equal values may be shown once. Read-outs that look alike come from different tables or passages of the source.
Columns and labels:
cathepsin Z = cathepsin Z (Homo sapiens (Human), UniProt Q9UBR2); assay: Cathepsin Z inhibition assay; assay type: biochemical; settings: Table 4; read-out: IC50 (nM) CatZ
Protocol: (§1) The capacities of compounds of the present invention to inhibit the activity of cathepsins B, H, K, L, and S were measured in similar assays. Boc-Leu-Arg-Arg-AMC (20 μM) in sodium acetate buffer (50 mM, pH 5.5) containing DTT (1 mM) and EDTA (2 mM) was used for the Cathepsin B assay. L-Arg-AMC (20 μM) in sodium acetate buffer (50 mM, pH 5.5) containing DTT (1 mM) and EDTA (2 mM) was used for the Cathepsin H assay. Z-Phe-Arg-AMC (10 μM) in HEPES buffer (50 mM, pH 7.4) containing DTT (2.5 mM) and EDTA (1 mM) was used for the Cathepsin K assay. Z-Phe-Arg-AMC (20 μM) in sodium acetate buffer (50 mM, pH 5.5) containing DTT (1 mM) and EDTA (2 mM) was used for the Cathepsin L assay. Z-Leu-Arg-AMC (10 μM) in sodium acetate buffer (25 mM, pH 4.5) containing DTT (2.5 mM) and NaCl (50 mM) was used for the Cathepsin S assay. The capacities of the compounds to inhibit the activity of cathepsins F, V, and Z were also measured.
(§2) Further assays to measure the inhibitory activity of compounds of the present invention against Kgp and cathepsins B, H, K, L, and S were conducted as described in Example 66. The capacities of the compounds to inhibit the activity of cathepsins F, V, and Z were also measured.

Cathepsin S = Cathepsin S (Homo sapiens (Human), UniProt P25774); assay: Cathepsin S inhibition assay; assay type: biochemical; settings: read-out: IC50 (nM) CatS
Protocol: as §1, §2

Cathepsin L = Cathepsin L (Homo sapiens (Human), UniProt P07711); assay: Cathepsin L inhibition assay; assay type: biochemical; settings: read-out: IC50 (nM) CatL
Protocol: as §1, §2

cathepsin V = cathepsin V (Homo sapiens (Human), UniProt O60911); assay: Cathepsin V inhibition assay; assay type: biochemical; settings: Table 4; read-out: IC50 (nM) CatV
Protocol: as §1, §2

Cathepsin K = Cathepsin K (Homo sapiens (Human), UniProt P43235); assay: Cathepsin K inhibition assay; assay type: biochemical; settings: read-out: IC50 (nM) CatK
Protocol: as §1, §2

Cathepsin H = Cathepsin H (Homo sapiens (Human), UniProt P09668); assay: Cathepsin H inhibition assay; assay type: biochemical; settings: read-out: IC50 (nM) CatH
Protocol: as §1, §2

cathepsin F = cathepsin F (Homo sapiens (Human), UniProt Q9UBX1); assay: Cathepsin F inhibition assay; assay type: biochemical; settings: Table 4; read-out: IC50 (nM) CatF
Protocol: as §1, §2

Cathepsin B = Cathepsin B (Homo sapiens (Human), UniProt P07858); assay: Cathepsin B inhibition assay; assay type: biochemical; settings: read-out: IC50 (nM) CatB
Protocol: as §1, §2

lysine gingipain (Kgp) [1] = molecular target: lysine gingipain (Kgp) (Porphyromonas gingivalis (Bacteroides gingivalis), UniProt P72194); assay: biochemical; assay type: biochemical; settings: IC50 (nM) Kgp
Protocol: (§3) The specific assay conditions were as follows. Buffer: pH=7.5, 100 mM Tris-HCl, 75 mM NaCl, 2.5 mM CaCl2), 10 mM cysteine, 1% DMSO after all additions. Protein: 0.1 nM Kgp, isolated from culture of Porphyromonas gingivalis, as described by Pike et al. (J. Biol. Chem. 1994, 269(1), 406), and Potempa and Nguyen (Current Protocols in Protein Science. 2007, 21.20.1-21.20.27). Fluorogenic substrate: 10 μM Z-His-Glu-Lys-MCA. Time=90 minutes. Temperature=37° C.
as §2

lysine gingipain (Kgp) [2] = assay: biochemical; assay type: biochemical, Porphyromonas gingivalis; settings: as compared to reference compound 73
Protocol: as §3, §2

[3] = Pharmacokinetics in male CD-1 mice dosed p.o.; assay type: in vivo; settings: p.o. 10 mg/kg, compared to reference compound 73
Kgp [4] = molecular target: T1, Kgp (Porphyromonas gingivalis (Bacteroides gingivalis), UniProt Q51817); assay: Activity probe labelling of Kgp in P. gingivalis-infected Jurkat cells (SDS-PAGE); assay type: cell-based; settings: infected Jurkat cells, preincubation before probe 15a
Description: The identity of this labeled protein in P. gingivalis-infected cells was confirmed to be Kgp by Western blot.

Kgp [5] = molecular target: T1, Kgp; assay: Cy5 activity-based probe detection of Kgp in P. gingivalis lysate; assay type: binding
Protocol: It has a warhead that binds to the Kgp active site, a peptide-based core, and a Cy5 fluorophore for detection. Labeled target proteins can be visualized by biochemical separation of a sample with fractionation by 2-D gel electrophoresis and detection of fluorescent signals from Cy5 at the appropriate excitation and emission wavelength. Incubation of a fixed concentration of the probe following binding of Kgp to a test compound (e.g., a candidate Kgp inhibitor) results in binding of the activity probe to Kgp active sites not already bound by the test compound.
10^8 bacteria were collected and centrifuged at 5000 g for 10 min at 4° C., and the supernatant was discarded. The bacterial cell pellet was lysed with 1 mL of B-Per lysis buffer (Thermo Fischer) on ice for 10 min, then centrifuged for 10 min at 14000 g, 4° C. Supernatant-containing protein lysate was collected. Biological samples were lysed with B-Per lysis buffer for 10 min at 4° C.
Biological samples, P. gingivalis lysate or purified Kgp were incubated with quenchable Cy5 probe compound 71 (1 μM) for 1 h at 37° C. with shaking. Then, samples were denatured with NUPAGE LDS sample buffer (Thermo Fisher) containing 50 mM DTT at 95° C. for 10 min and subjected to SDS-PAGE electrophoresis using a Criterion 4-15% precast gel (Bio-Rad) and Tris/Glycine/SDS running buffer (Bio-Rad). The gel was run at 75V for 10 min and then 125V for 1.5 h. The gel was then removed from the plastic cassette and subjected to Cy5 visualization with a ChemiDoc imaging system (Bio-Rad).
Samples were labeled with quenchable Cy5 probe compound 71 (1 μM) for 1 h at 37° C. with shaking. For immunoprecipitation of Cy5 labeled Kgp, the samples were then incubated with 10 μg of rabbit polyclonal CAB102 antibody with rotation overnight at 4° C. Then, samples were incubated with prewashed Dynabead Protein G beads with rotation for 20 min at room temperature. The samples were washed 4 times with 200 μL of washing buffer, using a magnetic rack. […]

[6] = in vivo, po; cited from earlier work

SMILES	IC50 (Cathepsin S; Table 4) [nM]	IC50 (Cathepsin L; Table 4) [nM]	IC50 (cathepsin V) [nM]	IC50 (Cathepsin K; Table 4) [nM]	IC50 (Cathepsin H; Table 4) [nM]	IC50 (cathepsin F) [nM]	IC50 (Cathepsin B; Table 4) [nM]	IC50 (lysine gingipain (Kgp) [1]; Table 4) [nM]	other results
NCCCC[C@H](NC(=O)C1CCCC1)C(=O)COc1c(F)c(F)cc(F)c1F (stereo in doubt) [Compound 73, N-[7-amino-2-oxo-1-(2,3,5,6-tetrafluorophenoxy)heptan-3-yl]cyclopentanecarboxamide, reference compound]	> 10000	700	5720	20	110	500	485		IC50 (cathepsin Z): > 10000 nM; IC50 (Cathepsin S; Table 3): 9980 nM; IC50 (Cathepsin L; Table 3): 700 nM; IC50 (Cathepsin K; Table 3): 20 nM; IC50 (Cathepsin H; Table 3): 110 nM; IC50 (Cathepsin B; Table 3): 485 nM
NCCCCC(NC(=O)C1CCCC1)C(=O)COc1c(F)cccc1F (stereo not drawn) [Compound 2a]	> 10000	> 10000	> 10000	2290	1550		> 10000	< 0.05	IC50 (Cathepsin S; Table 3): > 100000 nM; IC50 (Cathepsin L; Table 3): > 100000 nM; IC50 (lysine gingipain (Kgp) [1]; Table 3): ≤ 0.05 nM and 0.11 nM; IC50 (Cathepsin K; Table 3): 2290 nM; IC50 (Cathepsin H; Table 3): 1550 nM; IC50 (Cathepsin B; Table 3): > 10000 nM
NCCCCC(NC(=O)C1CCCC1)C(=O)COC(C(F)(F)F)C(F)(F)F (stereo not drawn) [Compound 18a]	> 10000	> 10000	> 10000	> 10000	> 10000	> 10000	> 10000	0.5	IC50 (lysine gingipain (Kgp) [1]; Table 3): 0.5 nM
COC(C)(C)C(=O)N[C@@H](CCCCN)C(=O)COc1c(F)ccc(F)c1F [Compound 47, (S)—N-(7-amino-2-oxo-1-(2,3,6-trifluorophenoxy)heptan-3-yl)-2-methoxy-2-methylpropanamide]									selectivity for Kgp over endogenous cathepsins (lysine gingipain (Kgp) [2]): far more selective; concentrations in the brain and cerebrospinal fluid (CSF) [3]: increased concentrations in the brain and cerebrospinal fluid (CSF); oral availability [3]: improved oral availability; plasma concentrations [3]: increased plasma concentrations
COC(C)(C)C(=O)NC(CCCCN)C(=O)COc1c(F)ccc(F)c1F (stereo not drawn) [Compound 47a]	> 10000	> 10000	> 10000	9000	> 10000	> 10000	> 10000	0.06	
NCCCCC(NC(=O)c1ccccn1)C(=O)COc1c(F)ccc(F)c1F (stereo not drawn) [Compound 50a]	> 10000	> 10000	> 10000	1000	> 10000	> 10000	> 10000	0.09	
NCCCCC(NC(=O)c1ccc(F)nc1)C(=O)COc1ccon1 (stereo not drawn) [Compound 55a]	> 10000	6380	> 10000	1000	> 10000		> 10000	0.12	
COC(C)(C)C(=O)N[C@@H](CCCCN)C(=O)COC(C(F)(F)F)C(F)(F)F [Compound 69, (S)—N-(7-amino-1-((1,1,1,3,3,3-hexafluoropropan-2-yl)oxy)-2-oxoheptan-3-yl)-2-methoxy-2-methylpropanamide]									selectivity for Kgp over endogenous cathepsins (lysine gingipain (Kgp) [2]): far more selective; concentrations in the brain and cerebrospinal fluid (CSF) [3]: increased concentrations in the brain and cerebrospinal fluid (CSF); oral availability [3]: improved oral availability; plasma concentrations [3]: increased plasma concentrations
COC(C)(C)C(=O)NC(CCCCN)C(=O)COC(C(F)(F)F)C(F)(F)F (stereo not drawn) [Compound 69a]	> 10000	> 10000		> 10000	> 10000	> 10000	> 10000	0.21	IC50 (cathepsin Z): > 10000 nM
C[N+]1=C(/C=C/C=C/C=C2\N(CCCCCC(=O)NCc3cn(-c4cccc(C(=O)N[C@@H](CCCCN)C(=O)COc5c(F)cccc5F)c4)nn3)c3ccc(S(=O)(=O)O)cc3C2(C)C)C(C)(C)c2cc(S(=O)(=O)O)ccc21 [Compound 70]									blocking of probe 15a binding to Kgp by preincubation (Kgp [4]): blocked the binding of the probe 15a to Kgp
C[N+]1=C(/C=C/C=C/C=C2\N(CCCCCC(=O)NCc3cn(-c4cccc(C(=O)N[C@@H](CCCCN)C(=O)COc5c(F)cc(CNC(=O)C6CCN(S(=O)(=O)c7ccccc7-c7c8cc/c(=[N+]9\CCc%10cc(S(=O)(=O)O)ccc%109)cc-8oc8cc(N9CCc%10cc(S(=O)(=O)O)ccc%109)ccc78)CC6)cc5F)c4)nn3)c3ccc(S(=O)(=O)O)cc3C2(C)C)C(C)(C)c2cc(S(=O)(=O)O)ccc21 [Compound 71]									specificity of detection (Kgp [5]; W83 vs Kgp knockout strain): specific for Kgp; apparent limit of detection of Kgp (Kgp [5]; probe 1 μM): 500 CFU
CN(NC(=O)CC[C@H](NC(=O)OCc1ccccc1)C(=O)N[C@@H](CCCCN)C(=O)C(=O)NCc1ccccc1)c1ccccc1 [Kyt-36]									half-life [6]: increases the half-life

Source: patent publication US10730826B2, “Ketone inhibitors of lysine gingipain” (CORTEXYME, INC., priority 2016, dated 2020)
